In patent publication US20240228481A1, “NOVEL SULFONAMIDE SERIES OF QR2 INHIBITORS TO TACKLE OXIDATIVE STRESS AND COGNITIVE DECLINE” (CARMEL HAIFA UNIVERSITY ECONOMIC CORPORATION LTD., priority 2021, published 2024):
Several values for one entry are separate records, joined by “and”; a condition that tells them apart may be missing. Equal values may be shown once.

How the values were obtained:
QR1 (NQO1) [1] = target: T1, QR1 (NQO1) (Homo sapiens, UniProt P15559); assay: Selectivity assay with QR1 in place of QR2, absorbance readout; type: biochemical
T1 construct: purchased Sigma-Aldrich
T1 sequence (P15559 whole entry): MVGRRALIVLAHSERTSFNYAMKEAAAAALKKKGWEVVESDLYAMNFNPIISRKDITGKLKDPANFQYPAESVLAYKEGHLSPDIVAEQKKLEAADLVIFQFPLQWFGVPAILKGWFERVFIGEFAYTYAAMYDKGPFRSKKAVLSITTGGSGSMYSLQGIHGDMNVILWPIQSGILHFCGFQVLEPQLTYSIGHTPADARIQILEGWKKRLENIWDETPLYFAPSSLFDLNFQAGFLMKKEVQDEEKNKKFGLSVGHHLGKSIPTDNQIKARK
Experimental: (§1) The enzymatic activity of QR2 (10 nM) was measured using menadione (both Sigma-Aldrich) as substrate and dihydrobenzylnicotamide (BNAH; Tocris) as co-substrate (Boutin et al., 2005). The reaction was performed in 50 mM Tris HCl, 150 mM NaCl 0.01% Tween-20 pH=8.5 (Sigma-Aldrich) at room temperature. Briefly, 3 μL of menadione alone (200 μM) or a mixture of menadione and QR2 (200 μM of menadione and 10 nM of QR2) were dispensed in 1536-well black Nunc plates (Thermo-Fisher) using a Multidrop™ Combi Reagent Dispenser (Thermo-Fisher) and pre-incubated with compounds for 10 min. BNAH (200 μM) was then added (3 μL) to the reaction using a BioNex Solutions BNX 1536 plate washer and the plates were incubated for another 10 min. […] The initial HTS was done with approximately 200,000 compounds at a single concentration of 5 μM. The chemical libraries used were Selleck Chemicals Bioactives, the Drug-like set from Enamine, HitFinder collection from Maybridge, Spectrum Collection from Microsource, Lopac from Sigma-Aldrich and the diversity sets from ChemDiv and ChemBridge. Initial “hit” compounds were defined as causing >30% reduction of enzyme activity. Compounds suspected to be fluorescent were re-assayed in an absorbance assay at 350 nm using the same reaction but in a higher volume (100 μL), in a transparent plate (Greiner Bio-One). “Hit” compounds resulting from both the fluorescence and absorbance assay were tested in a dose-response, and median inhibition concentration (IC50) values were determined. In parallel, the same dose response was used in a selectivity assay where QR2 enzyme was replaced by QR1 (also known as—NQO1, 10 nM; Sigma-Aldrich).
(§2) In order to establish a varied, flexible and chemically amenable starting point from which to develop such inhibitors, the inventors ran a standardized QR2 assay (see methods) against ˜200,000 compounds, from a varied assortment of chemical libraries. […] Compounds that replicated the initial hit result were then assayed similarly, against NQO1, to evaluate compound specificity (FIG. 1B). From the HTS, a series of compounds containing a sulfonamide central linker, with an amine on one side and a heterocycle on the other, were identified and selected for SAR development (FIG. 1C).

QR1 (NQO1) [2] = target: T1, QR1 (NQO1); assay: Selectivity assay with QR1 in place of QR2, fluorescence readout; type: biochemical
Experimental: as §1, §2

in vitro = settings: human
Experimental: (§5) THLE-2 (CRL-2706™) were grown in the BEGM Bullet Kit (CC-3170) from Lonza. Besides the additives contained in the kit, the medium was further supplemented with 5 ng/mL EGF (Sigma), 70 ng/mL phosphoethanolamine (Sigma) and 10% FBS (Biological Industries). The plates for the THLE-2 needed to be pre-coated with a mixture of 0.01 mg/mL fibronectin, 0.05 mg/mL of PureCol™ EZ Gel Solution (Sigma) and 0.01 mg/mL of BSA dissolved in BEBM medium (Lonza). The coating medium was aspirated before seeding.
(§6) THLE-2 cells were exposed to the compounds in a 9-point, 2-fold dilution dose response series with a 100 μM as upper limit, for 72 h. Following the 72 h of exposure to the test compounds, cell viability was determined by measuring the concentration of cellular ATP (CellTiter Glo, Promega). The luminescence signal was measured on a Pherastar FS multi-mode plate reader (BMG Labtech). Each data point was tested in a triplicate.
(§7) First, toxicity was assessed in an ATP depletion assay, using THLE-2 cells following a 72 h exposure to a dose response of each of the tested compounds.

QR2 [3] = target: T2, QR2 (Homo sapiens, UniProt P16083); assay: QR2 enzymatic activity assay (menadione/BNAH), absorbance readout at 350 nm; type: biochemical; parameters: purchased Sigma-Aldrich
T2 sequence (P16083 1-231): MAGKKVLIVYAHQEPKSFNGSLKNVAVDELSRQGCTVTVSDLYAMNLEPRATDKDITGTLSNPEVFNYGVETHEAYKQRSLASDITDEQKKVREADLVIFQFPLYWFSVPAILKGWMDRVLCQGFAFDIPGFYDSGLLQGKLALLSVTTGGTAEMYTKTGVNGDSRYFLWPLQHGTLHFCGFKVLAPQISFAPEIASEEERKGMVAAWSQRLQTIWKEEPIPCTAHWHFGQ
Experimental: (§3) The enzymatic activity of QR2 (10 nM) was measured using menadione (both Sigma-Aldrich) as substrate and dihydrobenzylnicotamide (BNAH; Tocris) as co-substrate (Boutin et al., 2005). The reaction was performed in 50 mM Tris HCl, 150 mM NaCl 0.01% Tween-20 pH=8.5 (Sigma-Aldrich) at room temperature. Briefly, 3 μL of menadione alone (200 μM) or a mixture of menadione and QR2 (200 μM of menadione and 10 nM of QR2) were dispensed in 1536-well black Nunc plates (Thermo-Fisher) using a Multidrop™ Combi Reagent Dispenser (Thermo-Fisher) and pre-incubated with compounds for 10 min. BNAH (200 μM) was then added (3 μL) to the reaction using a BioNex Solutions BNX 1536 plate washer and the plates were incubated for another 10 min. […] The initial HTS was done with approximately 200,000 compounds at a single concentration of 5 μM. The chemical libraries used were Selleck Chemicals Bioactives, the Drug-like set from Enamine, HitFinder collection from Maybridge, Spectrum Collection from Microsource, Lopac from Sigma-Aldrich and the diversity sets from ChemDiv and ChemBridge. Initial “hit” compounds were defined as causing >30% reduction of enzyme activity. […] “Hit” compounds resulting from both the fluorescence and absorbance assay were tested in a dose-response, and median inhibition concentration (IC50) values were determined. In parallel, the same dose response was used in a selectivity assay where QR2 enzyme was replaced by QR1 (also known as—NQO1, 10 nM; Sigma-Aldrich).
(§4) In order to establish a varied, flexible and chemically amenable starting point from which to develop such inhibitors, the inventors ran a standardized QR2 assay (see methods) against ˜200,000 compounds, from a varied assortment of chemical libraries.

QR2 [4] = target: T2, QR2; assay: QR2 enzymatic activity assay (menadione/BNAH), fluorescence readout; type: biochemical; parameters: purchased Sigma-Aldrich
Experimental: as §3, §4

HEK293T cells = assay: XTT cell viability assay; type: cell-based; settings: 3 h incubation, 20 nM-20 μM
Experimental: HEK293FT cells were cultured with penicillin-streptomycin antibiotics in Invitrogen DMEM (Thermo Fisher Scientific) with 10% fetal bovine serum and L-glutamine and grown to 80-90% confluence in 100 mm plates, while being passaged every 2-3 days. For the XTT assay (Biological Industries), cells were then collected, centrifuged, and resuspended in fresh minimum essential medium, and seeded at 50,000 cells/well in 96-well, poly-L-lysine-coated Nunc black, clear flat-bottomed plates (Thermo Fisher Scientific). The next day, the cells were treated with increasing doses of QR2 inhibitors or vehicle for 3 h, and the XTT assay was then carried out as according to the manufacturer's instructions.

QR2 [5] = target: T2, QR2; assay: Cellular thermal shift assay (CETSA) of QR2 in HEK293T cells; type: cell-based; parameters: endogenous in cells; host or cells: HEK293T
Experimental: The CETSA assay was performed as described (Miettinen and Björklund, 2014) with some modifications. Briefly, HEK293T cells were trypsinized (Biological Industries), washed in PBS (Sigma-Aldrich), and then suspended in PBS containing protease inhibitor cocktail (Roche). The suspended cells were then divided into two Eppendorf tubes and were treated with either: a compound or DMSO (Sigma-Aldrich) for 1 h at 37° C. under shaking. Following treatment, each sample was divided into PCR tubes (100 μL/tube) and subjected to a temperature gradient (ranging from 63 to 80° C.) for 3 minutes. Cell lysates were obtained by 3-cycles of freeze-thaw using liquid nitrogen and a thermal block set to 25° C. Samples were then centrifuged at 15,000 rpm at 4° C. for 20 min and were subsequently analyzed by western blot targeting QR2 (1:100, Santa Cruz; sc-271665). The isothermal dose response fingerprint (ITDRF) experiments were done using a constant temperature of 73° C. Band intensities were normalized to the highest concentration and superoxide dismutase 1 (SOD1) levels (1:200, Santa Cruz; sc-17767). Analysis of the results were performed according to Jafari et al., (2014) using GraphPad Prism software.
To establish direct target engagement, as well as cell membrane permeability, a cellular thermal shift assay (CETSA) was carried out (see methods), using the leading compounds YB-537, YB-800, and YB-808. Following 1 h preincubation with 5 μM of each of the compounds, or vehicle, thermal aggregation curves (Tagg) of QR2 expressed in HEK293T were measured in increasing temperatures. […] Based on the Tagg curves, the inventors selected 73° C. for isothermal dose-response fingerprint (IDTRF) experiments (FIG. 2B).

[6] = Cell toxicity assay (ATP depletion, CellTiter Glo); settings: human
Experimental: as §5, §6, §7

THLE-2 cells = assay: Cell toxicity assay (ATP depletion, CellTiter Glo); settings: 72 h incubation, CellTiter Glo
Experimental: as §5, §6, §7

Row | IC50 (QR1 (NQO1) [1]) | IC50 (QR1 (NQO1) [2]) | IC50 at 72 h (in vitro) | IC50 (QR2 [3]) | IC50 (QR2 [4]) | SMILES | toxicity in XTT assay (HEK293T cells) | thermal stability of QR2 (thermal aggregation curve) versus vehicle (QR2 [5]; 5 μM, 1 h preincubation) | EC50 (QR2 [5]; CETSA at 73° C., read-out: EC50 of QR2 stabilization (isothermal dose-response fingerprint)) | IC50 at 72 h [6] | median lethal dose (LD50) in THLE cells (THLE-2 cells)
1 | > 9.99 µM | > 9.99 µM | > 100000 nM | 0.02 µM | 0.19 µM | Cc1cccn2cc(-c3cccc(S(=O)(=O)N(C)C)c3)nc12 [PCM-0213804] | – | – | – | – | –
2 | > 9.99 µM | > 9.99 µM | 215000 nM | 1.71 µM | 2.31 µM | Cc1cc(-c2ccc(C)c(S(=O)(=O)N(C)C)c2)on1 [PCM-0212389] | – | – | – | – | –
3 | > 9.99 µM | > 9.99 µM | 124000 nM | 1.25 µM | 1.19 µM | Cc1cc(-c2ccc(C)c(S(=O)(=O)N3CCN(C(=O)c4ccco4)CC3)c2)on1 [PCM-0212388] | – | – | – | – | –
4 | > 9.99 µM | > 9.99 µM | 65100 nM | 0.75 µM | 0.42 µM | Cc1cc(-c2ccc(C)c(S(=O)(=O)N3CCCC3)c2)on1 [PCM-0212386] | – | – | – | – | –

Row | SMILES | IC50 (QR1 (NQO1) [1]) | IC50 (QR1 (NQO1) [2]) | IC50 at 72 h (in vitro) | IC50 (QR2 [3]) | IC50 (QR2 [4]) | toxicity in XTT assay (HEK293T cells) | thermal stability of QR2 (thermal aggregation curve) versus vehicle (QR2 [5]; 5 μM, 1 h preincubation) | EC50 (QR2 [5]; CETSA at 73° C., read-out: EC50 of QR2 stabilization (isothermal dose-response fingerprint)) | IC50 at 72 h [6] | median lethal dose (LD50) in THLE cells (THLE-2 cells)
5 | Cc1ccc(-c2cn3cccc(C)c3n2)cc1S(=O)(=O)N1CCCC1 [YB-808] | > 9.99 µM | > 9.99 µM | – | – | 0.01 µM | no toxicity | shifts of thermal stability | 13 nM | 59700 nM | 59.7 µM and 59.704 µM
